US6806267B1, “Apoptosis-inducing compounds” (priority 1998, dated 2004)

What was measured:
K562 cells = assay: Apoptosis in K562 cells, cytospin and staining; format: cell-based, human; settings: for protection against PBOX-6 induced apoptosis / effect of tyrosine kinase inhibitor pretreatment on PBOX-6 induced apoptosis: K562; for protection against PBOX-6 induced apoptosis: Vitamin E 1 hour or N-acetylcysteine 24 hours, then PBOX-6 16 hours; for effect of pretreatment on PBOX-6 induced apoptosis: K562, 1 hour prior to PBOX-6 16 hours; for induction of apoptosis: K562 cells; for effect of tyrosine kinase inhibitor pretreatment on PBOX-6 induced apoptosis: genistein 100 μM, herbimycin A 5 μM, tyrophostin 200 μM
HL-60 cells = assay: Apoptosis in HL-60 cells, cytospin and Rapi-Diff staining; settings: for protection against PBOX-6 induced apoptosis: HL-60, N-acetylcysteine 5 mM or TEMPO 1 μM, 30 min prior to PBOX-6 8 hours; for cytotoxicity at 10 µM: Homo sapiens, HL-60, 16 h, read-out: % Apoptosis; for induction of apoptosis at 10 μM / induction of apoptosis at a higher concentration: HL 60 cells; for induction of apoptosis at a higher concentration: higher concentration printed as 10 μM
[1] = target: T1, peripheral-type benzodiazepine receptor (PBR) (Homo sapiens, UniProt P30536); assay: Radioligand binding assay, inhibition of [^3H]PK 11195 binding to HL-60 homogenates; settings: for Ki: HL-60 homogenates, 2 nM [^3H]PK 11195, mean±SEM, read-out: Inhibition of [^3H]PK 11195 binding to the PBR, Ki value
T1 construct: Cell homogenates (50 μg protein) were incubated with 0.5-50 nM [^3H]; PK 11195; endogenous in cells; host or cells: HL-60 cell homogenate
Experimental: HL-60 cells were harvested by centrifugation at 600 g for 5 min and washing in phosphate-buffered saline. The resulting cell pellet was homogenised in 50 mM Tris/HCl buffer, pH 7.4 (2 ml), using an Ultraturrax homogeniser (10 sec) and then passed 5 times through a 21 gauge needle. Cell homogenates (50 μg protein) were incubated with 0.5-50 nM [^3H] PK 11195 in 50 mM Tris/HCl buffer, pH 7.4 (incubation buffer), in a total volume of 0.5 ml on ice. Total and non-specific/non-saturable binding in each case was determined in the absence and presence of 10 μM unlabelled PK 11195 respectively. All samples were incubated in triplicate for 60 min. The incubation mixtures were then filtered and counted as previously described (O'Beirne, et al., 1988). When testing the potency of a compound to inhibit [^3H] PK 11195 binding, samples were incubated with 2 nM [3H] PK 11195 and various concentrations (0.1 nM to 1 μM) of compound and subsequently treated exactly as above. The resulting Ki values were then generated by the use of the computer programs EBDA and LIGAND.
The amount of radioactivity bound in the presence of the displacer was expressed as a percentage of control bonding and the values represent the mean±SEM of triplicate determinations from one representative experiment performed at least twice. The Ki values were obtained as described in Methods section.

rat C6 glioma = settings: dose-dependent; cited from earlier work
[2] = system: human 132 l N1 astrocytoma; settings: dose-dependent; cited from earlier work
[3] = system: CML cell lines K562, KYO.1 and Lama 84; assay: Apoptosis in CML cell lines, cytospin and staining; format: cell-based, human; settings: for induction of apoptosis at 10 μM / induction of apoptosis at 100 μM: CML cells
JNK1 and JNK2 = format: cell-based, human; settings: K562
[4] = system: tyrosine phosphorylated proteins; assay: Protein tyrosine phosphorylation Western blot, K562 cells; format: cell-based, human; settings: K562, 100 μM in DMSO, 1 hr prior to PBOX-6
Experimental: Jurkat and CML cells (5×10^6) were harvested by centrifuigation at 1800 g for 10 min at 4° C. After being washed once with ice-cold phosphate-buffered saline, the cell pellet was suspended in 100 μl of ice-cold lysis buffer (50 mM Tris-HCl, pH 8.0, 150 mM NaCl, 0.1%.SDS, 1% Triton X-100, 1 mM sodium 1 mM phenylmethylsulfonyl, 10 ng/ml leupeptin and 10 ng/ml of aprotinin). The cells were left to sit on ice for 10 min and then centrifuged at 20,000 g for 20 min. The resulting supernatant was stored at −70° C. until measurement of tyrosine phosphorylation. Protein determination was measured by using the Bradford assay. Equal amounts of protein were resolved by SDS-polyacrylamide gel electrophoresis in 15% gels and transferred onto polyvinylidene difluoride (PVDF) membranes. Membranes were blocked with Tris-buffered saline with Tween 20 (10 mM Tris-HCl, pH 8.0, 150 mM NaCl, 0.05% Tween 20) containing 1% w/v BSA and probed with anti-phosphotyrosine antibody. Blots were washed, incubated with goat anti-mouse IgG peroxidase conjugate and developed by ECL according to the manufacturer's recommendations.

T1 sequence (P30536 whole entry): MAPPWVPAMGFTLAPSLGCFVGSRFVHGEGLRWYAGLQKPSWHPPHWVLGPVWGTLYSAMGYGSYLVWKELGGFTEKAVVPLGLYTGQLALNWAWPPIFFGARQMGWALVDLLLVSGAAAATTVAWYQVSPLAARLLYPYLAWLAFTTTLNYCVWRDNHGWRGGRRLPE

CC(=O)N[C@@H](CS)C(=O)O [N-acetylcysteine, reference compound]
protection against PBOX-6 induced apoptosis (K562 cells): failed to protect
protection against PBOX-6 induced apoptosis (HL-60 cells): Neither of these compounds were found to protect

CC(=O)OC1=C(c2cccc3ccccc23)Oc2ccccc2-n2cccc21 [PBOX-4, 7-Acetoxy-6-(1-naphthyl)pyrrolo[2,1-d][1,5]benzoxazepine]
cytotoxicity at 10 µM (HL-60 cells): 42.1 ± 0.6%
Ki [1]: 1.9 ± 2.3 nM

CNC(=O)OC1=C(c2cccc3ccccc23)Oc2ccccc2-n2cccc21 [PBOX-7, 7-[(Methylcarbamoyl)oxy]-6-(1-naphthyl)pyrrolo[2,1-d][1,5]-benzoxazepine]
degree of necrosis (HL-60 cells; HL-60 cells, 10 μM, 16 hours): negligible
cytotoxicity at 10 µM (HL-60 cells): 40.7 ± 2.5%
Ki [1]: 1.7 ± 0.7 nM

CN(C)C(=O)OC1=C(c2cccc3ccccc23)Sc2ccccc2-n2cccc21 [PBOX-8, 7-((Dimethylcarbamoyl)oxy)-6-(1-naphthyl)pyrrolo[2,1-d][1,5]benzothiazepine]
cytotoxicity at 10 µM (HL-60 cells): 38.6 ± 3.1%

CC(=O)OC1=C(c2cccc3ccccc23)Sc2ccccc2-n2cccc21 [PBOX-9, 7-Acetoxy-6-(1-naphthyl)pyrrolo[2,1-d][1,5]benzothiazepine]
cytotoxicity at 10 µM (HL-60 cells): 40.4 ± 3%

CC(=O)OC1=C(c2cccc3ccccc23)Oc2cccnc2-n2cccc21 [PBOX-12, 7-Acetoxy-6-(1-naphthyl)pyrrolo[1,2-d]pyrido[3,2-b][1,4]oiazepine]
cytotoxicity at 10 µM (HL-60 cells): 27.1 ± 2.7%

CCN(CC)C(=O)OC1=C(c2ccc(C)cc2)Oc2ccccc2-n2cccc21 [PBOX-21]
inhibition of proliferation, without being cytotoxic (rat C6 glioma): inhibit at micromolar concentrations
inhibition of proliferation, without being cytotoxic [2]: inhibit at micromolar concentrations

CC(=O)OC1=C(c2ccc(C)cc2)Oc2ccccc2-n2cccc21 [PBOX-24, 7-Acetoxy-6p-tolylpyrrolo[2,1-d][1,5]benzoxazepine]
cytotoxicity at 10 µM (HL-60 cells): 7 ± 1.2%

CCNC(=O)OC1=C(c2ccccc2)Oc2ccccc2-n2cccc21 [PBOX-25, 7-[(Ethylcarbamoyl)oxy]-6-phenylpyrrolo[2,1-d][1,5]benzoxazepine]
cytotoxicity at 10 µM (HL-60 cells): 19.2 ± 3%

CCN(CC)C(=O)OC1=C(c2ccccc2)Oc2cccnc2-n2cccc21 [PBOX-26, 7-((Diethylcarbamoyl)oxy)-6-phenylpyrrolo[1,2-d]pyrido[3,2-b][1,4]oxazepine]
cytotoxicity at 10 µM (HL-60 cells): 7.8 ± 2.3%

COc1ccc(C2=C(OC(=O)c3ccncc3)c3cccn3-c3ccccc3S2)cc1 [PBOX-28, 7-Isonicotinoyloxy-6-p-methoxyphenylpyrrolo[2,1-d][1,5]-benothiazepine]
cytotoxicity at 10 µM (HL-60 cells): 31.1 ± 1.7%

CCCC(=O)OC1=C(c2ccc(OC)cc2)[S+]([O-])c2ccccc2-n2cccc21 (stereo not shown) [PBOX-30, 7-(Butyryloxy)-6-(p-methoxyphenyl)pyrrolo[2,1-d][1,5]-benzothiazepine 5-Oxide]
cytotoxicity at 10 µM (HL-60 cells): 33.1 ± 1.6%

CCC(C)N(C)C(=O)c1cc2ccccc2c(-c2ccccc2Cl)n1 (stereo not shown) [PK 11195, 1-(2-chlorophenyl)-N-methyl-N-(1-methylpropyl)-3-isoquinolinecarboxamide]
inhibition of proliferation, without being cytotoxic (rat C6 glioma): inhibit at micromolar concentrations
inhibition of proliferation, without being cytotoxic [2]: inhibit at micromolar concentrations
induction of apoptosis at 10 μM [3]: failed to induce apoptosis
induction of apoptosis at 100 μM [3]: apoptosis was induced, although not to the same extent
induction of apoptosis at 10 μM (HL-60 cells; 10 μM): did not induce apoptosis
induction of apoptosis at a higher concentration (HL-60 cells): induced apoptosis

CN1C(=O)CN=C(c2ccc(Cl)cc2)c2cc(Cl)ccc21 [Ro5-4864, 7-chloro-5-(4-chlorophenyl)-1,3-dihydro-1-methyl-2-H-1,4-benzodiazepin-2-one]
inhibition of proliferation, without being cytotoxic (rat C6 glioma): inhibit at micromolar concentrations
inhibition of proliferation, without being cytotoxic [2]: inhibit at micromolar concentrations
induction of apoptosis at 10 μM [3]: failed to induce apoptosis
induction of apoptosis at 100 μM [3]: apoptosis was induced, although not to the same extent
induction of apoptosis at 10 μM (HL-60 cells; 10 μM): did not induce apoptosis
induction of apoptosis at a higher concentration (HL-60 cells): induced apoptosis

CC1(C)CCCC(C)(C)N1[O] [TEMPO, reference compound]
protection against PBOX-6 induced apoptosis (HL-60 cells): Neither of these compounds were found to protect

CCC(C)N(C)C(=O)c1cc2ccccc2c(-c2ccccc2Cl)n1 (stereo not shown) [[^3H] PK 11195, reference compound]
Bmax of [^3H] PK 11195 binding ([1]; HL-60 cell homogenates): 9.5±1.5 pmol/mg of protein

COc1cc([C@@H]2c3cc4c(cc3[C@@H](O[C@@H]3O[C@@H]5CO[C@@H](C)O[C@H]5[C@H](O)[C@H]3O)[C@H]3COC(=O)[C@H]23)OCO4)cc(OC)c1O [etoposide]
effect of pretreatment on PBOX-6 induced apoptosis (K562 cells): protects against apoptosis
apoptosis (K562 cells; K562, up to 24 hours): failed to undergo apoptosis
induction of apoptosis (K562 cells): does not induce apoptosis
effect of Topo II inhibitor pretreatment on PBOX-6 induced JNK activation (JNK1 and JNK2): failed to prevent against PBOX-6 induced activation of JNK

O=c1c(-c2ccc(O)cc2)coc2cc(O)cc(O)c12 [genistein, reference compound]
effect of tyrosine kinase inhibitor pretreatment on PBOX-6 induced apoptosis (K562 cells): completely inhibited the induction of apoptosis
effect of pretreatment on PBOX-6 induced protein phosphorylation [4]: prevented the phosphorylation of these two proteins

CO[C@H]1[C@@H](OC)C[C@H](C)[C@@H](OC)C2=CC(=O)C=C(NC(=O)/C(C)=C/C=C\[C@H](OC)[C@@H](OC(N)=O)/C(C)=C/[C@@H]1C)C2=O [herbimycin A]
effect of tyrosine kinase inhibitor pretreatment on PBOX-6 induced apoptosis (K562 cells): reduced levels of apoptosis

O=C1c2c(O)ccc(O)c2C(=O)c2c(NCCNCCO)ccc(NCCNCCO)c21 [mitoxanthrone]
effect of pretreatment on PBOX-6 induced apoptosis (K562 cells): protects against apoptosis
induction of apoptosis (K562 cells): does not induce apoptosis

Vitamin E
protection against PBOX-6 induced apoptosis (K562 cells): failed to protect

z-DEVD-fmk [reference compound]
effect of pretreatment on PBOX-6 induced apoptosis [3]: failed to prevent the induction of apoptosis
effect of pre-treatment on morphological signs of apoptosis induced by PBOX-6 (HL-60 cells): inhibited
